Source: patent publication US20250340551A1, “SMALL MOLECULE MODULATORS OF STAT6” (Gilead Sciences, Inc., priority 2024, published 2025)

The compounds below were run against human STAT6 (Homo sapiens (Human), UniProt P42226) (assay: Surface plasmon resonance assay (Biacore 8K, binding to immobilized STAT6)). Conditions: human STAT6 aa122-658, N-terminal His-tag, CM5 chip, 25° C.; geometric mean; read-out: STAT6 SPR Kd.
Method: Biacore instruments from the 8K-series (Cytiva) were used, and measurements were performed at 25° C. Human STAT6 (truncated, aa122-658, with N-terminal His-tag, expressed in insect cells) was immobilized in the active flow cells on a CM5 chip using amine-coupling (default settings) at 10 μg/ml in 10 mM acetate buffer pH 5.5, at a contact time of 120-420 sec. and a flow rate of 10 μl/min. Reference flow cells were deactivated using blank immobilization. PBS-P+ (Cytiva) supplemented with 2% DMSO was used as running buffer, and solvent correction was applied. Compounds were tested by multi-cycle kinetics injections using a contact time of 60 sec., dissociation time of up to 300 sec., and a flow rate of 30 μl/min.
Solvent-corrected, reference-subtracted and blank-corrected data was processed and binding isotherms were fitted according to a single report point from each sensorgram (Standard: Late binding (5 sec. before injection end); alternative: Earlier report point according to binding profile). Data fitting was done both with unfixed Rmax and with Rmax fixed to the theoretical value* assuming 1:1 binding to allow processing of data from both weak and strong binders as well as to evaluate binding stoichiometry.
Positive controls were run at the beginning, during, and at the end of the screen to evaluate surface activity.

Sequence of human STAT6 (P42226 122-658): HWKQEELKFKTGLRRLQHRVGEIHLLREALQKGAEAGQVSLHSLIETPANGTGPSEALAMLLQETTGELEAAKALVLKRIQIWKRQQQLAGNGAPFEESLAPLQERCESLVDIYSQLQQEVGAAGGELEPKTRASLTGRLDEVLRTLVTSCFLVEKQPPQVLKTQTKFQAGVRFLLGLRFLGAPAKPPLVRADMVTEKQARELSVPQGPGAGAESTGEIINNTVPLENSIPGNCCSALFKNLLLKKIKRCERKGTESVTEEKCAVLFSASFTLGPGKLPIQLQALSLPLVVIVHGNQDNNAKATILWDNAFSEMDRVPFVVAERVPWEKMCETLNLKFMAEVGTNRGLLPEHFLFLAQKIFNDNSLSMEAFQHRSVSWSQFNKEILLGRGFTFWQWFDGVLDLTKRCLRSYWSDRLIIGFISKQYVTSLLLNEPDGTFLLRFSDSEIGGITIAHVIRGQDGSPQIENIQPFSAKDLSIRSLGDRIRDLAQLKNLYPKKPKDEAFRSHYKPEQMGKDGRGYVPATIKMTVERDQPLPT

| Compound | Kd [nM] |
| --- | --- |
| 4-(1-((4-(6-Amino-5-methoxypyridin-3-yl)-1-methyl-1H-pyrrolo[2,3-b]pyridin-2-yl)methyl)piperidin-4-yl)-N,N-dimethylbenzamide [Example 1k7] | 835 |
| CC(=O)Nc1ccc(-c2ccnc3c2cc(CN2CC[C@H](c4ccc(C(=O)N(C)C)cc4)[C@@H](C)C2=O)n3C)cc1 (single isomer, unassigned) [1aa2′] | 116 |
| CC(=O)Nc1ccc(-c2ccnc3c2cc(CN2CC[C@@H](c4ccc(C(=O)N(C)C)cc4)[C@H](C)C2=O)n3C)cc1 (single isomer, unassigned) [Example 1aa2] | 203 |
| CN(C)C(=O)c1ccc(C2CCN(Cc3cc4c(-c5ccc(N)nc5)ccnc4n3C)C(=O)C2)cc1 (single isomer, unassigned) [Example 1ae5] | 46.4 |
| CNc1ccc(-c2ccnc3c2cc([C@H](C)N2CCC(c4ccc(C(=O)N(C)C)cc4)CC2)n3C)cn1 (single isomer, unassigned) [Example 1af7] | 222 |
| C[C@H]1C[C@H](c2ccc(C(=O)N(C)C)cc2)CCN1Cc1cc2c(-c3ccc(N)nc3C#N)ccnc2n1C (single isomer, unassigned) [Example 1q2] | 2560 |
| C[C@@H]1C[C@@H](c2ccc(C(=O)N(C)C)cc2)CCN1Cc1cc2c(-c3ccc(N)nc3C#N)ccnc2n1C (single isomer, unassigned) [Example 1q3] | 4240 |
| C[C@@H]1C[C@@H](c2ccc(C(=O)N(C)C)cc2)CCN1Cc1cc2c(-c3ccc(N)cn3)ccnc2n1C (single isomer, unassigned) [Example 1q7] | 5350 |
| CNc1ccc(-c2ccnc3c2cc(CN2CC[C@H](c4ccc(C(=O)N(C)C)cc4)[C@@H](F)C2)n3C)cn1 (single isomer, unassigned) [Example 1s24] | 36.7 |
| CNc1ccc(-c2ccnc3c2cc(CN2CC[C@@H](c4ccc(C(=O)N(C)C)cc4)[C@H](F)C2)n3C)cn1 (single isomer, unassigned) [Example 1s25] | 35.3 |
| [2H]C([2H])([2H])N(C(=O)c1ccc(C2=CCN(C(C)c3cc4c(-c5ccc(N)nc5C#N)ccnc4n3C)CC2)cc1)C([2H])([2H])[2H] (stereo in doubt) [Example 1af22, (R)-4-(1-(1-(4-(6-Amino-2-cyanopyridin-3-yl)-1-methyl-1H-pyrrolo[2,3-b]pyridin-2-yl)ethyl)-1,2,3,6-tetrahydropyridin-4-yl)-N,N-bis(methyl-d3)benzamide] | 6600 |
| [2H]C([2H])([2H])N(C(=O)c1ccc(C2=CCN(C(C)c3cc4c(-c5ccc(N)nc5C#N)ccnc4n3C)CC2)cc1)C([2H])([2H])[2H] (stereo in doubt) [Example 1af24, (S)-4-(1-(1-(4-(6-amino-2-cyanopyridin-3-yl)-1-methyl-1H-pyrrolo[2,3-b]pyridin-2-yl)ethyl)-1,2,3,6-tetrahydropyridin-4-yl)-N,N-bis(methyl-d3)benzamide] | 51.3 |
| CNc1ccc(-c2ccnc3c2cc(CN2CC[C@H](c4ccc(C(=O)N(C)C)cc4)[C@@H](F)C2)n3C)nc1 (stereo in doubt) [Example 1o18, 4-((3R,4R)-3-fluoro-1-((1-methyl-4-(5-(methylamino)pyridin-2-yl)-1H-pyrrolo[2,3-b]pyridin-2-yl)methyl)piperidin-4-yl)-N,N-dimethylbenzamide] | 139 |
| C[C@H]1C[C@H](c2ccc(C(=O)N(C)C)cc2)CCN1Cc1cc2c(-c3ccc(N)cn3)ccnc2n1C (stereo in doubt) [Example 1q8, N,N-dimethyl-4-[(2S,4R)-1-[[4-(5-amino-2-pyridyl)-1-methyl-pyrrolo[2,3-b]pyridin-2-yl]methyl]-2-methyl-4-piperidyl]benzamide] | 3980 |
| CNc1ccc(-c2ccnc3c2cc(CN2CCC(c4ccc(C(=O)N(C)C)cc4)CC2=O)n3C)cn1 (stereo in doubt) [Example 1s3, N,N-Dimethyl-4-[(4R)-1-[[1-methyl-4-[6-(methylamino)-3-pyridyl]pyrrolo[2,3-b]pyridin-2-yl]methyl]-2-oxo-4-piperidyl]benzamide] | 23.2 |
| CNc1ccc(-c2ccnc3c2cc(CN2CCC(c4ccc(C(=O)N(C)C)cc4)CC2=O)n3C)cn1 (stereo in doubt) [Example 1s4, N,N-dimethyl-4-[(4S)-1-[[1-methyl-4-[6-(methylamino)-3-pyridyl]pyrrolo[2,3-b]pyridin-2-yl]methyl]-2-oxo-4-piperidyl]benzamide] | 51.1 |
| CNc1ccc(-c2ccnc3c2cc(CN2CC[C@@H](c4ccc(C(=O)N(C)C)cc4)[C@@H](F)C2)n3C)cn1 (stereo in doubt) [Example 1s27, N,N-Dimethyl-4-[(3R,4S)-3-fluoro-1-[[1-methyl-4-[6-(methylamino)-3-pyridyl]pyrrolo[2,3-b]pyridin-2-yl]methyl]-4-piperidyl]benzamide] | 40.6 |
| CN(C)C(=O)c1ccc(C2CCN(Cc3cc4c(-c5ccc(N)c(O)n5)ccnc4n3C)CC2)cc1 [Example 1ad1, 4-(1-((4-(5-Amino-6-hydroxypyridin-2-yl)-1-methyl-1H-pyrrolo[2,3-b]pyridin-2-yl)methyl)piperidin-4-yl)-N,N-dimethylbenzamide] | 79.4 |
| COc1nc(-c2ccnc3c2cc(CN2CCC(c4ccc(C(=O)N(C)C)cc4)CC2)n3C)ccc1N [Example 1ad2, 4-(1-((4-(5-Amino-6-methoxypyridin-2-yl)-1-methyl-1H-pyrrolo[2,3-b]pyridin-2-yl)methyl)piperidin-4-yl)-N,N-dimethylbenzamide] | 54 |
| CNc1ccc(-c2ccnc3c2cc(CN2CCC(c4ccc(C(=O)N(C)C)cc4)CC2)n3C(C)C)cn1 [Example 1ad3, 4-[1-[[1-iso-Propyl-4-[6-(methylamino)-3-pyridyl]pyrrolo[2,3-b]pyridin-2-yl]methyl]-4-piperidyl]-N,N-dimethyl-benzamide] | 2730 |
| CN(C)C(=O)c1ccc([C@@H]2CCN(Cc3cc4c(-c5ccc(N)nc5)ccnc4n3C)C(=O)C2)cc1 [Example 1ae4, (R)—N,N-Dimethyl-4-[1-[[4-(6-amino-3-pyridyl)-1-methyl-pyrrolo[2,3-b]pyridin-2-yl]methyl]-2-oxo-4-piperidyl]benzamide] | 24.5 |
| CN(C)C(=O)c1ccc(N2CCN(Cc3cc4c(-c5ccc(N)nc5)ccnc4n3C)C(=O)C2)cc1 [Example 1ae7, 4-[4-[[4-(6-Amino-3-pyridyl)-1-methyl-pyrrolo[2,3-b]pyridin-2-yl]methyl]-3-oxo-piperazin-1-yl]-N,N-dimethyl-benzamide] | 67.8 |
| [2H]C([2H])([2H])N(C(=O)c1ccc(C2CCN(Cc3cc4c(-c5ccc(N)cn5)ccnc4n3C)CC2)cc1)C([2H])([2H])[2H] [Example 1ae10, 4-[1-[[4-(5-Amino-2-pyridyl)-1-methyl-pyrrolo[2,3-b]pyridin-2-yl]methyl]-4-piperidyl]-N,N-bis(trideuteriomethyl)benzamide] | 25.4 |
| CNC(=O)c1ccc(C2CCN(Cc3cc4c(-c5ccc(N)nc5C#N)ccnc4n3C)CC2)cc1 [Example 1ae14, 4-[1-[[4-(6-Amino-2-cyano-3-pyridyl)-1-methyl-pyrrolo[2,3-b]pyridin-2-yl]methyl]-4-piperidyl]-N-methyl-benzamide] | 194 |
| [2H]C([2H])([2H])NC(=O)c1ccc(C2CCN(Cc3cc4c(-c5ccc(N)nc5C#N)ccnc4n3C)CC2)cc1 [Example 1ae15, 4-[1-[[4-(6-Amino-2-cyano-3-pyridyl)-1-methyl-pyrrolo[2,3-b]pyridin-2-yl]methyl]-4-piperidyl]-N-(trideuteriomethyl)benzamide] | 201 |
| C[C@@H](c1cc2c(-c3ccc(N)nc3)ccnc2n1C)N1CCC(c2ccc(C(=O)N(C)C)cc2)CC1 [Example 1af11, (S)-4-(1-(1-(4-(6-amino-pyridin-3-yl)-1-methyl-1H-pyrrolo[2,3-b]pyridin-2-yl)ethyl)-piperidin-4-yl)-N,N-dimethyl-benzamide] | 102 |
| C[C@@H](c1cc2c(-c3ccc(N)nc3C#N)ccnc2n1C)N1CCC(c2ccc(C(=O)N(C)C)cc2)CC1 [Example 1af13, (S)-4-(1-(1-(4-(6-amino-2-cyanopyridin-3-yl)-1-methyl-1H-pyrrolo[2,3-b]pyridin-2-yl)ethyl)piperidin-4-yl)-N,N-dimethylbenzamide] | 691 |
| C[C@@H](c1cc2c(-c3ccc(N)cn3)ccnc2n1C)N1CCC(c2ccc(C(=O)N(C)C)cc2)CC1 [Example 1af15, (S)-4-(1-(1-(4-(5-amino-pyridin-2-yl)-1-methyl-1H-pyrrolo[2,3-b]pyridin-2-yl)-ethyl)piperidin-4-yl)-N,N-dimethylbenzamide] | 438 |
| C[C@H](c1cc2c(-c3ccc(N)cn3)ccnc2n1C)N1CCC(c2ccc(C(=O)N(C)C)cc2)CC1 [Example 1af16, (R)-4-(1-(1-(4-(5-aminopyridin-2-yl)-1-methyl-1H-pyrrolo[2,3-b]pyridin-2-yl)ethyl)piperidin-4-yl)-N,N-dimethylbenzamide] | 15.5 |
| Cc1cc(C(=O)N(C)C)ccc1C1CCN([C@@H](C)c2cc3c(-c4ccc(N)cn4)ccnc3n2C)CC1 [Example 1af17, (S)-4-(1-(1-(4-(5-aminopyridin-2-yl)-1-methyl-1H-pyrrolo[2,3-b]pyridin-2-yl)ethyl)piperidin-4-yl)-N,N,3-trimethylbenzamide] | 6400 |
